Assay results: US8796250B2, “Diaryl ureas for diseases mediated by PDGFR” (Bayer Healthcare LLC, priority 2003, dated 2014)
pIC50: −log10 of the molar value.

Test system: neointimal formation
Assay: not given
Conditions: rat model; M. Karck et al. 2002; cited from earlier work

Structure (SMILES) | effect on neointimal formation in aortic allograft vasculopathy
Cc1cc2ncc(-c3ccccc3)nc2cc1C [AG-1295] | reduce neointimal formation

Target: T1, PDGFR-beta phosphorylation (Tyr-857) in Aortic SMC stimulated with PDGF BB (Homo sapiens, UniProt P09619)
T1 construct: endogenous in cells; host or cells: Aortic SMC (AoSMC), passages P3-P6
Assay: pPDGFR-Beta Sandwich ELISA in AoSMC Cells
Type: cell-based
Conditions: 1 hr compound, 10 ng/mL PDGF BB for 7 minutes, read-out: IC50 in bioassay of PDGFR inhibition in cells
Method: 100K P3-P6 Aortic SMC were plated in each well of 12-well cluster in 1000 uL volume/well of SGM-2 using standard cell culture techniques. Next day, cells were rinsed with 1000 uL D-PBS (Gibco) once, then serum starved in 500 uL SBM (smooth muscle cell basal media) with 0.1% BSA (Sigma, Cat A9576) overnight. Compounds were diluted at a dose range from (10 uM to 1 nM in 10-fold dilution steps in DMSO. Final DMSO concentration 0.1%). Remove old media by inversion into the sink quickly then add 100 ul of each dilution to corresponding well of cells for 1 hr at 37° C. Cells were then stimulated with 10 ng/mL PDGF BB ligand for 7 minutes at 37° C. The media is decanted and 150 uL of isotonic lysis buffer with protease inhibitor tablet (Complete; EDTA-free) and 0.2 mM Na vanadate is added. Cells are lysed for 15 min at 4° C. on shaker in cold room. […] Next day, beads are rinsed in 50-volumes of PBS three times and boiled in 1×LDS sample buffer (Invitrogen) for 5 minutes. Samples were run on 3-8% gradient Tris-Acetate gels (Invitrogen) and transferred onto Nitrocellulose. […] After three washes in TBS-T, membranes were incubated in Goat anti-rabbit HRP IgG (Amersham, 1:25000 dilution) for 1 hr. Three more washes followed before addition of ECL substrate. Membranes were exposed to Hyperfilm-ECL.

T1 sequence (P09619 33-1106): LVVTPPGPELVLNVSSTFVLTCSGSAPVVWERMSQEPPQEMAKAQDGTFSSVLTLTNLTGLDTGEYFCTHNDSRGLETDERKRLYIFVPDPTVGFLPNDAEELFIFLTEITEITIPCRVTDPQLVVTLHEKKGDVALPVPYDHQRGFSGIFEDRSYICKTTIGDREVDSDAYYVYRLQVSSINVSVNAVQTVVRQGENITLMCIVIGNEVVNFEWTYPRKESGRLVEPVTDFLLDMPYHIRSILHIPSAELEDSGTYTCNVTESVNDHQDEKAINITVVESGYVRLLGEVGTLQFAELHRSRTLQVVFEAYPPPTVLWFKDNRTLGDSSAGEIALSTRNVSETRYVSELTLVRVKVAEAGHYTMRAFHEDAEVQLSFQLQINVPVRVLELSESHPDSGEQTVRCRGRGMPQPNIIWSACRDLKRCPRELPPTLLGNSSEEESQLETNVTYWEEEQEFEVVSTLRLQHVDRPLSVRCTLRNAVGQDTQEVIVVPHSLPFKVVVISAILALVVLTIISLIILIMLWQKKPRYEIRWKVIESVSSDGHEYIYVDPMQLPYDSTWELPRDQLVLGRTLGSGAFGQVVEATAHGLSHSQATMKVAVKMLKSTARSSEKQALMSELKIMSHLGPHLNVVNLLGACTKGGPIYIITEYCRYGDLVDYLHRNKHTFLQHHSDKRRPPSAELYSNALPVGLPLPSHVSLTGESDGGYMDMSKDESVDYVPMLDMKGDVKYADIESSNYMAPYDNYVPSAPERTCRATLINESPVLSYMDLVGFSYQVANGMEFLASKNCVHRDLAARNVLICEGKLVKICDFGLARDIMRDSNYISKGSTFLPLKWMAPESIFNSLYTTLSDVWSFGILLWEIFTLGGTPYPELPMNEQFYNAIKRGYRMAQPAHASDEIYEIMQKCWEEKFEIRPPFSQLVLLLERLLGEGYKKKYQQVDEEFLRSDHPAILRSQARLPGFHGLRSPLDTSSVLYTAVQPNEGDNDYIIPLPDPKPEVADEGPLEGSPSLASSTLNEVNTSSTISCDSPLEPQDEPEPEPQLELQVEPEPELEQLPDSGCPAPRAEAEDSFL

Structure (SMILES) | pIC50
CNC(=O)c1cc(Oc2ccc(NC(=O)Nc3ccc(Cl)c(C(F)(F)F)c3)c(Cl)c2)ccn1 [N-(4-chloro-3-(trifluoromethyl)phenyl)-N′-(4-(2-(N-methylcarbamoyl)-4-pyridyloxy)-2-chlorophenyl) urea] | > 5.00

Target: T2, mouse PDGFR (PDGFR beta) (Mus musculus, UniProt P05622)
T2 construct: made in house
Assay: Murine PDGFR FRET Biochemical Assay
Conditions: 1 nM mouse PDGFR, 20 μM ATP, TR-FRET; read-out: IC50 in biochemical assay (inhibition of PDGFR)
From the text: Reaction is initiated upon addition of enzyme.

T2 sequence (P05622 32-1098): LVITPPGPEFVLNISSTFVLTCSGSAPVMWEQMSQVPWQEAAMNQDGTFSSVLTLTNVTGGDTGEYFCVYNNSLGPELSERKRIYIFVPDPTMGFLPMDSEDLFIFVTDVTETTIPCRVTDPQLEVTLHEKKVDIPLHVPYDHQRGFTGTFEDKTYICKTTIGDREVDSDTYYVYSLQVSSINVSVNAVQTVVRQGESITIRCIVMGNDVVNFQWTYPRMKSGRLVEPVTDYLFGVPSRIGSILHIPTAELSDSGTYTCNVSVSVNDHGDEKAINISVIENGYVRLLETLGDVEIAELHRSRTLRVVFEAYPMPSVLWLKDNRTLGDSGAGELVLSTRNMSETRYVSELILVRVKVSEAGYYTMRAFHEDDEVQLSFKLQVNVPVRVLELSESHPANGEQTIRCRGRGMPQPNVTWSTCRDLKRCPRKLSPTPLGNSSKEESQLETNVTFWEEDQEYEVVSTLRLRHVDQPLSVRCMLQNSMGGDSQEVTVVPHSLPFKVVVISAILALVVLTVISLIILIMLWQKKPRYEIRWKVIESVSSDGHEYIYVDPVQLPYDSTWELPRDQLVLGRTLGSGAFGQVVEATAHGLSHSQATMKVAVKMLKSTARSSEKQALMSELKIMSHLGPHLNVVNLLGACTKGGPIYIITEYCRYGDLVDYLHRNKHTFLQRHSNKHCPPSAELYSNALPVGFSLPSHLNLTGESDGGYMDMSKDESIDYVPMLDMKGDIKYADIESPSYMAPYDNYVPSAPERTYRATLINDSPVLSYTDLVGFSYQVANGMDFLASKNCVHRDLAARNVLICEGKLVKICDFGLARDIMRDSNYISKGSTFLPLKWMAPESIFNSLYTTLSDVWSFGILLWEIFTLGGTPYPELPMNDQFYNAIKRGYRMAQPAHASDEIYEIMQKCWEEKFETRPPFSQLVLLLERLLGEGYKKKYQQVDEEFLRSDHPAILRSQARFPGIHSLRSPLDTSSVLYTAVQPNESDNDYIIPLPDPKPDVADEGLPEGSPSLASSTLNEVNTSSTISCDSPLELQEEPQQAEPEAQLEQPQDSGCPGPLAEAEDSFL

Structure (SMILES) | pIC50
CNC(=O)c1cc(Oc2ccc(NC(=O)Nc3ccc(Br)c(C(F)(F)F)c3)c(Cl)c2)ccn1 [N-(4-bromo-3-(trifluoromethyl)phenyl)-N′-(4-(2-(N-methylcarbamoyl)-4-pyridyloxy)-2-chlorophenyl) urea] | > 5.00
CNC(=O)c1cc(Oc2ccc(NC(=O)Nc3ccc(Br)c(C(F)(F)F)c3)c(F)c2)ccn1 [N-(4-bromo-3-(trifluoromethyl)phenyl)-N′-(4-(2-(N-methylcarbamoyl)-4-pyridyloxy)-2-fluorophenyl) urea] | > 5.00
CNC(=O)c1cc(Oc2ccc(NC(=O)Nc3ccc(Br)c(C(F)(F)F)c3)cc2)ccn1 [N-(4-bromo-3-(trifluoromethyl)phenyl)-N′-(4-(2-(N-methylcarbamoyl)-4-pyridyloxy)phenyl) urea] | > 5.00
CNC(=O)c1cc(Oc2ccc(NC(=O)Nc3ccc(Cl)c(C(F)(F)F)c3)cc2)cc[n+]1[O-] [N-(4-chloro-3-(trifluoromethyl)phenyl)-N′-(4-(1-hydroxy-2-(N-methylcarbamoyl)-4-pyridyloxy)phenyl) urea] | > 5.00
NC(=O)c1cc(Oc2ccc(NC(=O)Nc3ccc(Cl)c(C(F)(F)F)c3)cc2)cc[n+]1[O-] [N-(4-chloro-3-(trifluoromethyl)phenyl)-N′-(4-(1-hydroxy-2-carbamoyl-4-pyridyloxy)phenyl) urea] | > 5.00
CNC(=O)c1cc(Oc2ccc(NC(=O)Nc3ccc(Cl)c(C(F)(F)F)c3)c(Cl)c2)ccn1 [N-(4-chloro-3-(trifluoromethyl)phenyl)-N′-(4-(2-(N-methylcarbamoyl)-4-pyridyloxy)-2-chlorophenyl) urea] | > 5.00
CNC(=O)c1cc(Oc2ccc(NC(=O)Nc3ccc(Cl)c(C(F)(F)F)c3)cc2)ccn1 [N-(4-chloro-3-(trifluoromethyl)phenyl)-N′-(4-(2-(N-methylcarbamoyl)-4-pyridyloxy)phenyl) urea] | > 5.00
NC(=O)c1cc(Oc2ccc(NC(=O)Nc3ccc(Cl)c(C(F)(F)F)c3)cc2)ccn1 [N-(4-chloro-3-(trifluoromethyl)phenyl)-N′-(4-(2-carbamoyl-4-pyridyloxy)phenyl) urea] | > 5.00
CNC(=O)c1cc(Oc2ccc(NC(=O)Nc3ccc(F)c(C(F)(F)F)c3)c(F)c2)ccn1 [N-(4-fluoro-3-(trifluoromethyl)phenyl)-N′-(4-(2-(N-methylcarbamoyl)-4-pyridyloxy)-2-fluorophenyl) urea] | > 5.00
N#Cc1cc(Oc2ccc(NC(=O)Nc3ccc4c(c3)C(F)(F)OC(F)(F)O4)c(F)c2)ccn1 [N-(6-(2,2,4,4-tetrafluoro-4H-benzo[1,3]dioxinyl))-N′-(4-(2-cyano-4-pyridyloxy)-2-fluorophenyl) urea] | > 5.00
N#Cc1cc(Oc2ccc(NC(=O)Nc3ccc4c(c3)C(F)(F)OC(F)(F)O4)cc2)ccn1 [N-(6-(2,2,4,4-tetrafluoro-4H-benzo[1,3]dioxinyl))-N′-(4-(2-cyano-4-pyridyloxy)phenyl) urea] | > 5.00

Test system: restenosis following angioplasty
Assay: not given
Conditions: G. Bilder et al. Circulation 1999; cited from earlier work

Structure (SMILES) | effect on restenosis following angioplasty
COc1cc2ncc(-c3ccsc3)nc2cc1OC.Cl [RPR101511A] | prevented angiographically defined restenosis following angioplasty
